Assay results from patent US20130252831A1, “METHOD OF DIAGNOSING EARLY STAGE NON-SMALL CELL LUNG CANCER” (H. Lee Moffitt Cancer Center and Research Institute, Inc., priority 2010, published 2013).

Columns and labels:
A489 cell line = assay: MR score in cisplatin treated versus control cells, Almeida et al. dataset GSE6410; type: cell-based; settings: p=0.08
From the text: The inventors have identified 10 published datasets describing drug sensitivity in cell lines. Three of them have been analyzed to show the potential of the MR signature for its association with drug sensitivity. […] A high MR score tends to be associated with low GI50 (sensitivity) in both drugs. In addition, in the Almeida et al.'s study (GSE6410), the MR score was lower in the cisplatin treated group than in the control group in A489 cell line (FIG. 20c).
Thousands and thousands of gene expression array data have been deposited at various public repositories, such as NCBI's Gene Expression Omnibus and EBI's ArrayExpress with more than 600,000 array data for each site (updated in October 2011; 100,000 more since January 2011). The broad and unrestricted microarray data have made in-silico validation of hypotheses accessible and feasible. For this invention, more than 1,000 microarray datasets have potential for performing in-silico validation (e.g., data related to the keyword “non-small cell lung cancer cell line” at GEO). First, appropriate datasets are identified for validation by reading the […] (at least abstract and experimental design). At this moment, more than 10 potential useful datasets have been identified. […] Molecular cancer therapeutics, 2008, 7(7); p. […]

EGFR-mutant NSCLC = settings: randomized phase III trial (Zhou et al.); cited from earlier work

For N.N.[Cl][Pt][Cl] [Cisplatin], the “MR score in treated group versus control group” value (A489 cell line) was “lower”.
In the case of C#Cc1cccc(Nc2ncnc3cc(OCCOC)c(OCCOC)cc23)c1 [erlotinib], the “efficacy compared with platinum-based chemotherapy” value (EGFR-mutant NSCLC) is listed as “superior to platinum-based chemotherapy”.
